{"source": "patent US20250000843A1", "about": "“LIGNAN-INSPIRED COMPOUNDS, METHODS OF MAKING, AND USING THEREOF” (IOWAIBO, INC., priority 2023, published 2025)", "key": {"[1]": {"tested_on": "PC3, a human prostate cancer cell line", "assay": "MTT toxicity assay in PC3 prostate cancer cells", "assay_type": "cell-based", "method": "Toxicity of the dibenzyl butyl lactone derivative (3-[(3,4-dimethoxyphenyl)cyclopentyl], 4-[(3-hydroxyphenol)methyl]oxolan-2-one) in breast cancer cells was evaluated using MTT assay. The MTT toxicity test is a colorimetric assay to measure cells' metabolic activity by serving as a substrate of cellular enzymes that reduce the tetrazolium orange dye, MTT (3-(4,5-Dimethylthiazol-2-yl)-2,5-diphenyltetrazolium bromide) to its insoluble, formazan, giving a purple color. The rate of conversion is directly proportional to cells' mitochondrial metabolic activity via NAD (P) H-dependent cellular oxidoreductase enzymes and serves as a surrogate marker of cell viability.\nCells previously expanded were seeded in 96 well plates at 1.9×10^5 and 9.6×10^4 cells/plate for 24- and 72-hours treatment respectively. This concentration is known to show the best window for the MTT assay, with better sensitivity and low variability.\n5 mg of powdered enterolactone, dibenzyl butyl lactone derivative enantiomer A, and dibenzyl butyl lactone derivative enantiomer B were dissolved in 500 μl of DMSO at room temperature. Eight-point curves, ⅓ dilutions (highest concentration 125 μM), were prepared.\nTwenty-four hours following the seeding process, the cells were washed once with phosphate buffered saline (PBS) and treated with the respective compounds in cell culture media. Each condition was tested in triplicates. For positive and negative controls, 8 mM methyl methane sulfonate (MMS) and DMSO 100% were used respectively.\nFollowing compound addition, the plates were incubated for 24 and 72 hours. After the treatment period, cells were washed twice with PBS and media was replaced with MTT reagent at 0.5 mg/ml in Dulbecco's modified Eagle medium (DMEM) without phenol red. The plates were gently shaken and incubated for 4 hours. After the incubation the medium was removed and replaced by DMSO. The plates were gently shaken to solubilize the formazan crystals. Absorbance was measured using an Envision multiplate reader at a wavelength of 570 nm.\nToxicity of the dibenzyl butyl lactone derivative (3-[(3,4-dimethoxyphenyl)cyclopentyl], 4-[(3-hydroxyphenol)methyl]oxolan-2-one) in prostate cancer cells was evaluated using MTT assay. The same methods as those used in Example 2 were employed, except the cell line used was PC3, a human prostate cancer cell line, and cell cultures were established in Kaighn's modification of Ham's […] medium.\nMTT assay results are shown in Tables 16-21 and expressed as the percentage of cell death after treatment."}, "telomerase": {"biological_target": "telomerase (Homo sapiens, UniProt O14746)", "sequence (O14746 whole entry)": "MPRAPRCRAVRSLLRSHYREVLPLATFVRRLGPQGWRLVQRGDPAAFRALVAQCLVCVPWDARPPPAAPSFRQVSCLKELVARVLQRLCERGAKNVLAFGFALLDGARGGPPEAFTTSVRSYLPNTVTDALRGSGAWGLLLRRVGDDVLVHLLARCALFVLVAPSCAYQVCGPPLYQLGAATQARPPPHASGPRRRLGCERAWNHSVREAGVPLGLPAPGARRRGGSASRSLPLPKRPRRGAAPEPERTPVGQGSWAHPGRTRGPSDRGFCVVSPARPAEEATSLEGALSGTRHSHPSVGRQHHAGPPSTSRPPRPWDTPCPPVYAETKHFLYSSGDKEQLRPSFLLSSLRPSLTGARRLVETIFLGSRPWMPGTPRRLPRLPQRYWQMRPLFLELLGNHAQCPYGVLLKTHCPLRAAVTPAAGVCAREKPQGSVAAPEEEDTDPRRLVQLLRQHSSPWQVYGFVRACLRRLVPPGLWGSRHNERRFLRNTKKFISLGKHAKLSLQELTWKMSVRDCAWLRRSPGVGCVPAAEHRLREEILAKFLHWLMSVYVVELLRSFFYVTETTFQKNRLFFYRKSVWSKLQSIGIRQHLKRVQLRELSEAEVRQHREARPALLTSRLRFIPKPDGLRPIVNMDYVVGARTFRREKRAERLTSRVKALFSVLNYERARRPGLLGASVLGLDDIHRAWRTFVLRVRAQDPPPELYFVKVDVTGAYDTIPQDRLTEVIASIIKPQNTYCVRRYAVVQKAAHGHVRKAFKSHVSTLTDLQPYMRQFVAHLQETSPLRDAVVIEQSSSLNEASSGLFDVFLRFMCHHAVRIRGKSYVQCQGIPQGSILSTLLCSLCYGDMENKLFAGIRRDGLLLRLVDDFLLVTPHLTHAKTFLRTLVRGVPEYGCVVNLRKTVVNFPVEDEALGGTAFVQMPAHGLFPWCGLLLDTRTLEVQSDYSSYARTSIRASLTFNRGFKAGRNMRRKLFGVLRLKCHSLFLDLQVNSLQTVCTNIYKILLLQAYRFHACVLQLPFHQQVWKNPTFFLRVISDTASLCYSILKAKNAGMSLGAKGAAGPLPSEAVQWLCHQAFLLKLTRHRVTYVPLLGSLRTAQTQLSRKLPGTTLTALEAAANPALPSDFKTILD", "sequence (O60832 whole entry partner)": "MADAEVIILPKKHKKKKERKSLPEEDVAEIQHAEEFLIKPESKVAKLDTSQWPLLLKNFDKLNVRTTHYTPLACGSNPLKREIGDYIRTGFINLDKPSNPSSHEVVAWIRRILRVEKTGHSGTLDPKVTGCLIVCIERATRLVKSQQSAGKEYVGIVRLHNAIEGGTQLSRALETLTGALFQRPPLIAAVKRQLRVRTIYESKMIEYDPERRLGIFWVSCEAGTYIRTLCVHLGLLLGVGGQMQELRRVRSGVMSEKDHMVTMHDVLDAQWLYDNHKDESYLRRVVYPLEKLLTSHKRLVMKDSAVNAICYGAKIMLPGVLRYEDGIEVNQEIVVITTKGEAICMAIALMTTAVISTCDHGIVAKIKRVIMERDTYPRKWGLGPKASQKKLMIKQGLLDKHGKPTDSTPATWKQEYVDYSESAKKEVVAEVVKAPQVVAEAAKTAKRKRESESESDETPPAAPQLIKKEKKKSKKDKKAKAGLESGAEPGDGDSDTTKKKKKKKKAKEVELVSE", "sequence (Q9NPE3 whole entry partner)": "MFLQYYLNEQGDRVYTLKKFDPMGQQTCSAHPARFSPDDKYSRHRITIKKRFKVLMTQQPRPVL", "sequence (Q9NX24 whole entry partner)": "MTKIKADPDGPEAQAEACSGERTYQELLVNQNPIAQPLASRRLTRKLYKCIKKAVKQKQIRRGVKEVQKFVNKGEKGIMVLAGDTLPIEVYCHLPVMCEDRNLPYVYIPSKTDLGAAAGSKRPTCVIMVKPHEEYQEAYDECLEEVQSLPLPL", "sequence (Q9NY12 whole entry partner)": "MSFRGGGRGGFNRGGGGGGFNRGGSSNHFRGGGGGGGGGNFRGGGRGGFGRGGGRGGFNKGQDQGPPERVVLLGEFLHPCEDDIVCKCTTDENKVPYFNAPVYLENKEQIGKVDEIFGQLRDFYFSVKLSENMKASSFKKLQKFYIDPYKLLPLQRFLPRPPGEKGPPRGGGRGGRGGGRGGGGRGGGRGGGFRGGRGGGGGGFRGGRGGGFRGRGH", "sequence (Q9BUR4 whole entry partner)": "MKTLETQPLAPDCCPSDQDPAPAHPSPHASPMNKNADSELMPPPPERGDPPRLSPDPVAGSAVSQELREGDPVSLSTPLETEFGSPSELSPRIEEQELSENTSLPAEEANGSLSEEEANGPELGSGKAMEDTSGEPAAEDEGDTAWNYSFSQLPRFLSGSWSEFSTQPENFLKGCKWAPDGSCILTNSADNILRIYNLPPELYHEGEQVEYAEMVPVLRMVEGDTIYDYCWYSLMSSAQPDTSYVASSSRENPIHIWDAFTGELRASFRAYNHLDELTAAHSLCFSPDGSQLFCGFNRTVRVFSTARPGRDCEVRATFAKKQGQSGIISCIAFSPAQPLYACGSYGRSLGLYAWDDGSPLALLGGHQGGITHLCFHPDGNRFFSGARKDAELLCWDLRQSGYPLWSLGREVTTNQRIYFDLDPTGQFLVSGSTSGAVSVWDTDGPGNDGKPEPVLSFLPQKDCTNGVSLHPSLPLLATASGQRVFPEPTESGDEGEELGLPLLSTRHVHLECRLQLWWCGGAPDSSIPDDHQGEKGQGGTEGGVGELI", "assay": "Q-TRAP telomerase activity in MCF7 breast cancer cells", "assay_type": "cell-based", "set-up": "allow the enzymatic addition of telomeric DNA repeats by endogenous telomerase; endogenous in cells"}}}
{"compound": "O=C1OC[C@H](Cc2cccc(O)c2)[C@H]1Cc1cccc(O)c1", "note": "(racemic) [Enterolactone, reference compound]", "values": [{"measurement": "Cell death #1 (%)", "setting": "[1]; PC3, 24 hours, 0.06 μM", "value": "−3.37", "unit": "%"}, {"measurement": "Cell death #2 (%)", "setting": "[1]; PC3, 24 hours, 0.06 μM", "value": "−20.79", "unit": "%"}, {"measurement": "Cell death #3 (%)", "setting": "[1]; PC3, 24 hours, 0.06 μM", "value": "−22.43", "unit": "%"}, {"measurement": "Cell death (%) MEAN", "setting": "[1]; PC3, 24 hours, 0.06 μM", "value": "−15.53", "unit": "%"}, {"measurement": "Cell death #1 (%)", "setting": "[1]; PC3, 24 hours, 0.17 μM", "value": "−12.56", "unit": "%"}, {"measurement": "Cell death #2 (%)", "setting": "[1]; PC3, 24 hours, 0.17 μM", "value": "−5.41", "unit": "%"}, {"measurement": "Cell death #3 (%)", "setting": "[1]; PC3, 24 hours, 0.17 μM", "value": "−10.24", "unit": "%"}, {"measurement": "Cell death (%) MEAN", "setting": "[1]; PC3, 24 hours, 0.17 μM", "value": "−9.40", "unit": "%"}, {"measurement": "Cell death #1 (%)", "setting": "[1]; PC3, 24 hours, 0.51 μM", "value": "−29.78", "unit": "%"}, {"measurement": "Cell death #2 (%)", "setting": "[1]; PC3, 24 hours, 0.51 μM", "value": "−35.88", "unit": "%"}, {"measurement": "Cell death #3 (%)", "setting": "[1]; PC3, 24 hours, 0.51 μM", "value": "−8.98", "unit": "%"}, {"measurement": "Cell death (%) MEAN", "setting": "[1]; PC3, 24 hours, 0.51 μM", "value": "−24.88", "unit": "%"}, {"measurement": "Cell death #1 (%)", "setting": "[1]; PC3, 24 hours, 1.54 μM", "value": "−30.56", "unit": "%"}, {"measurement": "Cell death #2 (%)", "setting": "[1]; PC3, 24 hours, 1.54 μM", "value": "−47.58", "unit": "%"}, {"measurement": "Cell death #3 (%)", "setting": "[1]; PC3, 24 hours, 1.54 μM", "value": "−25.82", "unit": "%"}, {"measurement": "Cell death (%) MEAN", "setting": "[1]; PC3, 24 hours, 1.54 μM", "value": "−34.65", "unit": "%"}, {"measurement": "Cell death #1 (%)", "setting": "[1]; PC3, 24 hours, 4.63 μM", "value": "−41.49", "unit": "%"}, {"measurement": "Cell death #2 (%)", "setting": "[1]; PC3, 24 hours, 4.63 μM", "value": "−38.59", "unit": "%"}, {"measurement": "Cell death #3 (%)", "setting": "[1]; PC3, 24 hours, 4.63 μM", "value": "−32.20", "unit": "%"}, {"measurement": "Cell death (%) MEAN", "setting": "[1]; PC3, 24 hours, 4.63 μM", "value": "−37.42", "unit": "%"}, {"measurement": "Cell death #1 (%)", "setting": "[1]; PC3, 24 hours, 13.89 μM", "value": "−33.85", "unit": "%"}, {"measurement": "Cell death #2 (%)", "setting": "[1]; PC3, 24 hours, 13.89 μM", "value": "−41.29", "unit": "%"}, {"measurement": "Cell death #3 (%)", "setting": "[1]; PC3, 24 hours, 13.89 μM", "value": "−40.62", "unit": "%"}, {"measurement": "Cell death (%) MEAN", "setting": "[1]; PC3, 24 hours, 13.89 μM", "value": "−38.59", "unit": "%"}, {"measurement": "Cell death #1 (%)", "setting": "[1]; PC3, 24 hours, 41.67 μM", "value": "−32.30", "unit": "%"}, {"measurement": "Cell death #2 (%)", "setting": "[1]; PC3, 24 hours, 41.67 μM", "value": "−17.98", "unit": "%"}, {"measurement": "Cell death #3 (%)", "setting": "[1]; PC3, 24 hours, 41.67 μM", "value": "−35.59", "unit": "%"}, {"measurement": "Cell death (%) MEAN", "setting": "[1]; PC3, 24 hours, 41.67 μM", "value": "−28.62", "unit": "%"}, {"measurement": "Cell death #1 (%)", "setting": "[1]; PC3, 24 hours, 125.00 μM", "value": 19.65, "unit": "%"}, {"measurement": "Cell death #2 (%)", "setting": "[1]; PC3, 24 hours, 125.00 μM", "value": 12.01, "unit": "%"}, {"measurement": "Cell death #3 (%)", "setting": "[1]; PC3, 24 hours, 125.00 μM", "value": 15.10, "unit": "%"}, {"measurement": "Cell death (%) MEAN", "setting": "[1]; PC3, 24 hours, 125.00 μM", "value": 15.59, "unit": "%"}, {"measurement": "Cell death #1 (%)", "setting": "[1]; PC3, 72 hours, 0.06 μM", "value": "−39.68", "unit": "%"}, {"measurement": "Cell death #2 (%)", "setting": "[1]; PC3, 72 hours, 0.06 μM", "value": "−40.18", "unit": "%"}, {"measurement": "Cell death #3 (%)", "setting": "[1]; PC3, 72 hours, 0.06 μM", "value": "−37.32", "unit": "%"}, {"measurement": "Cell death (%) MEAN", "setting": "[1]; PC3, 72 hours, 0.06 μM", "value": "−39.06", "unit": "%"}, {"measurement": "Cell death #1 (%)", "setting": "[1]; PC3, 72 hours, 0.17 μM", "value": "−49.03", "unit": "%"}, {"measurement": "Cell death #2 (%)", "setting": "[1]; PC3, 72 hours, 0.17 μM", "value": "−43.54", "unit": "%"}, {"measurement": "Cell death #3 (%)", "setting": "[1]; PC3, 72 hours, 0.17 μM", "value": "−39.93", "unit": "%"}, {"measurement": "Cell death (%) MEAN", "setting": "[1]; PC3, 72 hours, 0.17 μM", "value": "−44.17", "unit": "%"}, {"measurement": "Cell death #1 (%)", "setting": "[1]; PC3, 72 hours, 0.51 μM", "value": "−71.45", "unit": "%"}, {"measurement": "Cell death #2 (%)", "setting": "[1]; PC3, 72 hours, 0.51 μM", "value": "−77.56", "unit": "%"}, {"measurement": "Cell death #3 (%)", "setting": "[1]; PC3, 72 hours, 0.51 μM", "value": "−73.70", "unit": "%"}, {"measurement": "Cell death (%) MEAN", "setting": "[1]; PC3, 72 hours, 0.51 μM", "value": "−74.24", "unit": "%"}, {"measurement": "Cell death #1 (%)", "setting": "[1]; PC3, 72 hours, 1.54 μM", "value": "−63.98", "unit": "%"}, {"measurement": "Cell death #2 (%)", "setting": "[1]; PC3, 72 hours, 1.54 μM", "value": "−69.71", "unit": "%"}, {"measurement": "Cell death #3 (%)", "setting": "[1]; PC3, 72 hours, 1.54 μM", "value": "−46.41", "unit": "%"}, {"measurement": "Cell death (%) MEAN", "setting": "[1]; PC3, 72 hours, 1.54 μM", "value": "−60.03", "unit": "%"}, {"measurement": "Cell death #1 (%)", "setting": "[1]; PC3, 72 hours, 4.63 μM", "value": "−74.57", "unit": "%"}, {"measurement": "Cell death #2 (%)", "setting": "[1]; PC3, 72 hours, 4.63 μM", "value": "−70.83", "unit": "%"}, {"measurement": "Cell death #3 (%)", "setting": "[1]; PC3, 72 hours, 4.63 μM", "value": "−81.17", "unit": "%"}, {"measurement": "Cell death (%) MEAN", "setting": "[1]; PC3, 72 hours, 4.63 μM", "value": "−75.52", "unit": "%"}, {"measurement": "Cell death #1 (%)", "setting": "[1]; PC3, 72 hours, 13.89 μM", "value": "−60.86", "unit": "%"}, {"measurement": "Cell death #2 (%)", "setting": "[1]; PC3, 72 hours, 13.89 μM", "value": "−51.02", "unit": "%"}, {"measurement": "Cell death #3 (%)", "setting": "[1]; PC3, 72 hours, 13.89 μM", "value": "−63.98", "unit": "%"}, {"measurement": "Cell death (%) MEAN", "setting": "[1]; PC3, 72 hours, 13.89 μM", "value": "−58.62", "unit": "%"}, {"measurement": "Cell death #1 (%)", "setting": "[1]; PC3, 72 hours, 41.67 μM", "value": "−35.45", "unit": "%"}, {"measurement": "Cell death #2 (%)", "setting": "[1]; PC3, 72 hours, 41.67 μM", "value": "−32.21", "unit": "%"}, {"measurement": "Cell death #3 (%)", "setting": "[1]; PC3, 72 hours, 41.67 μM", "value": "−34.95", "unit": "%"}, {"measurement": "Cell death (%) MEAN", "setting": "[1]; PC3, 72 hours, 41.67 μM", "value": "−34.20", "unit": "%"}, {"measurement": "Cell death #1 (%)", "setting": "[1]; PC3, 72 hours, 125.00 μM", "value": 35.94, "unit": "%"}, {"measurement": "Cell death #2 (%)", "setting": "[1]; PC3, 72 hours, 125.00 μM", "value": 32.46, "unit": "%"}, {"measurement": "Cell death #3 (%)", "setting": "[1]; PC3, 72 hours, 125.00 μM", "value": 22.11, "unit": "%"}, {"measurement": "Cell death (%) MEAN", "setting": "[1]; PC3, 72 hours, 125.00 μM", "value": 30.17, "unit": "%"}, {"measurement": "IC50", "setting": "telomerase; MCF7, 24 h", "value": "> 40", "unit": "µM"}, {"measurement": "IC50", "setting": "telomerase; MCF7, 48 h", "value": "> 40", "unit": "µM"}, {"measurement": "IC50", "setting": "telomerase; MCF7, 72 h", "value": "> 40", "unit": "µM"}, {"measurement": "telomerase activity following treatment as compared to control (untreated) groups", "setting": "telomerase; MCF7, Q-TRAP", "value": "no significant difference in telomerase activity"}]}
